Measurements as given in patent US7671061B2, “Methods and compositions for treating pain” (Hydra Biosciences, Inc., priority 2005, dated 2010).

The compounds below were run against T1, hTRPA1 (Homo sapiens, UniProt O75762, K186N) (assay: High throughput Ca2+ fluorescence (Fluo4) assay, AITC stimulation). Settings: Table 1; read-out: hTRPA1 Fluo4 IC50.
T1 construct: expressed in transfected cells; host or cells: HEK293/TREx (Invitrogen), induced with tetracycline
Assay type: cell-based
Text: The assay depended on detection of the rise in intracellular Ca^2+ concentration ([Ca^2+]i) following channel activation in cells inducibly expressing the TRPA1 channel. Ca^2+ rise was quantified with the use of fluorescent Ca^2+ indicators that were loaded into cells and thereafter indicated the [Ca^2+]i. Ca^2+ influx followed activation of the TRPA1 channel. Compounds inhibiting the [Ca^2+]i rise were considered hits for further investigation.
These cells were maintained in the growth medium recommended by the manufacturer supplemented with 100 μg/ml hygromycin to promote retention of the TRPA1 construct. After growing to near confluency, cells were plated at a density of ˜25,000 cells/well in 384 well CellBind plates (Corning) in the presence of 1 μg/ml tetracycline, and allowed to grow for 20-30 hrs. A nearly confluent monolayer resulted. Cells were then loaded with Ca^2+ dye: Fura-2/AM or Fluo4/AM was added to the wells to a final concentration of 2 μM or 1 μM, respectively, and incubated for 80 min or 60 min, respectively, at room temperature. […] Frames were acquired at a rate of 0.2 Hz. During the assay, the plates were continuously […], with pipette mixing of wells following addition of each reagent. For the screening assay, 13 μl of a diluted stock (at 50 μM) was added to each well for 2 minutes following the collection of a short (4 frame) baseline. […] Data was collected for ˜3 minutes following addition of AITC, where the fluorescent intensity (for Fluo4) and the F340/F380 ratio (for Fura-2) were proportional to the [Ca^2+]i. Negative controls consisted of HEK293/TREx TRPA1 cells exposed to AITC, but no compound. […] These controls defined a screening window, and “hits” were defined as those compounds inhibiting the fluorescence response by at least 40%. IC50 values were determined for compounds defined as “hits.” The Fluo4 cell-based fluorescence assay was used to determine the intracellular Ca^2+ concentration in the presence of varying drug concentration. […] Compounds were tested in triplicate at all concentrations. Standard software was used to fit IC50 curves.

T1 sequence (O75762 whole entry K186N): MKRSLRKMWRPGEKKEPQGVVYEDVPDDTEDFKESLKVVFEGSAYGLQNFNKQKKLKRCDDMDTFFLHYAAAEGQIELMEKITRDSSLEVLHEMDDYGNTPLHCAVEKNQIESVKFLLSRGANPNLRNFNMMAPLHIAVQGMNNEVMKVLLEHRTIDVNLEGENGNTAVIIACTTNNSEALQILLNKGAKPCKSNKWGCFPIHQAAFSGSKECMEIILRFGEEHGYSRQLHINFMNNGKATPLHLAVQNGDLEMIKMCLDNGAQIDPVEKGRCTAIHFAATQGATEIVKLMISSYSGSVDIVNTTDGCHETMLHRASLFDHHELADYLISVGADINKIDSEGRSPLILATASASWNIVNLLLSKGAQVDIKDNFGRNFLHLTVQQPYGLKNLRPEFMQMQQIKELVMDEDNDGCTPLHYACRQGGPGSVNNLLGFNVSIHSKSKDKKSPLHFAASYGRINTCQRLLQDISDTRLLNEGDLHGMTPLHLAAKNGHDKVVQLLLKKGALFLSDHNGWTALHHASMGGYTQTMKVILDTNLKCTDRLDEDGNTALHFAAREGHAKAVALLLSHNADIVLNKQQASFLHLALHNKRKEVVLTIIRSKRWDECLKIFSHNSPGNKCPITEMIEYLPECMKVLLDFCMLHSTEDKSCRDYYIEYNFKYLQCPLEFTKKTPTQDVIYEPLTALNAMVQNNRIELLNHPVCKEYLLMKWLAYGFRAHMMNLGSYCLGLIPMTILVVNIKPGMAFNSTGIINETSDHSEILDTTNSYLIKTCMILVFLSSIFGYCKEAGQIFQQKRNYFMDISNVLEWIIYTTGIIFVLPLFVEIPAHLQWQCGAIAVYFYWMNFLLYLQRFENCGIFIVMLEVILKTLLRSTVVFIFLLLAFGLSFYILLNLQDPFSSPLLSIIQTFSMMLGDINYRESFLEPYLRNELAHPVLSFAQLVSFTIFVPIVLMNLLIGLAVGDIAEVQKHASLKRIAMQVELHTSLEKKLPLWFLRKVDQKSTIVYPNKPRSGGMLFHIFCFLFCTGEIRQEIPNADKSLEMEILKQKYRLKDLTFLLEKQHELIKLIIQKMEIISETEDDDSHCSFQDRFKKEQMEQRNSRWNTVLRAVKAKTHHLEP

| IC50 [µM] | Compound |
| --- | --- |
| > 10 | CCN(CC)C(=O)C1=C(C)NC(=S)NC1c1ccc(F)cc1 (stereo not drawn) |
| > 10 | CC1=C(C(=O)N2CCOCC2)C(c2cccc(Cl)c2)NC(=O)N1 (stereo not drawn) |
| > 10 | CCOC(=O)C1=C(CN2CCc3ccccc32)NC(=O)NC1c1cc(C)ccc1C (stereo not drawn) |
| > 10 | CCOC(=O)C1=C(CN2CCC(C)CC2)NC(=O)NC1c1ccc(Cl)cc1 (stereo not drawn) |
| > 10 | COC(=O)C1=C(C)N(C)C(=O)NC1c1cccc(Cl)c1Cl (stereo not drawn) |
| > 10 | CCOC(=O)C1=C(c2ccccc2)NC(=O)NC1c1ccccc1Cl (stereo not drawn) |
| > 10 | CC1=C(C(=O)OC(C)C(C)C)C(c2ccc(C)cc2)NC(=O)N1 (stereo not drawn) |
| > 10 | COc1ccc(C2NC(=S)N(C)C(C)=C2C(=O)Nc2ccccc2)cc1 (stereo not drawn) |
| > 10 | CCN(CC)C(=O)C1=C(C)NC(=S)NC1c1ccc(OC)cc1 (stereo not drawn) |
| > 10 | CC1=C(C(=O)OC(C)C)C(c2cccc(Br)c2)NC(=O)N1 (stereo not drawn) |
| ≤ 5 | CC1=C(C(=O)OCC(C)C)C(c2ccc([N+](=O)[O-])cc2)NC(=O)N1C (stereo not drawn) |
| > 10 | CCOC(=O)C1=C(c2ccccc2)N(C)C(=O)NC1c1ccccc1F (stereo not drawn) |
| > 10 | CCN(CC)C(=O)C1=C(C)NC(=S)NC1c1ccc(OC)cc1OC (stereo not drawn) |
| > 10 | COC(=O)C1=C(C)N(C)C(=O)NC1c1ccccc1C (stereo not drawn) |
| > 10 | CC1=C(C(=O)OCc2ccccc2)C(c2ccc(F)cc2)NC(=O)N1 (stereo not drawn) |
| > 10 | COC(=O)C1=C(C)NC(=O)NC1c1ccc(O)c(OC)c1 (stereo not drawn) |
| > 10 | CC1=C(C(=O)Nc2ccccc2)C(c2ccc(Br)cc2)NC(=S)N1 (stereo not drawn) |
| > 10 | C=CCOC(=O)C1=C(C)NC(=O)NC1c1c(F)cccc1Cl (stereo not drawn) |
| ≤ 10 | CC1=C(C(=O)OC(C)C)C(c2ccccc2Cl)NC(=S)N1 (stereo not drawn) |
| > 10 | COC(=O)C1=C(C)N(C)C(=O)NC1c1cc(Br)ccc1F (stereo not drawn) |
| > 10 | CCOC(=O)C1=C(C)NC(=O)NC1c1ccc(F)cc1F (stereo not drawn) |
| > 10 | CCOC(=O)C1=C(C)NC(=S)NC1c1ccccc1 (stereo not drawn) |
| > 10 | CC1=C(C(=O)OC(C)(C)C)C(c2cccc(Cl)c2)NC(=O)N1 (stereo not drawn) |
| > 10 | CCOC(=O)C1=C(CN2CCCCC2)NC(=O)NC1c1cc(C)ccc1C (stereo not drawn) |

| IC50 [µM] | Compound |
| --- | --- |
| > 10 | CCC(C)OC(=O)C1=C(C)NC(=O)NC1c1ccccc1Cl (stereo not drawn) |
| ≤ 5 | CCOC(=O)C1=C(c2ccccc2)NC(=S)NC1c1ccc(SC)cc1 (stereo not drawn) |
| ≤ 10 | COC(=O)C1=C(C)N(C)C(=S)NC1c1ccc(Cl)cc1 (stereo not drawn) |
| > 10 | CCN(CC)C(=O)C1=C(C)NC(=S)NC1c1cc(C)c(OC)cc1C (stereo not drawn) |
| > 10 | CCOC(=O)C1=C(C)NC(=S)NC1c1ccccc1OC1CCCC1 (stereo not drawn) |
| > 10 | CCCCOC(=O)C1=C(C)NC(=O)NC1c1ccc(C)cc1 (stereo not drawn) |
| > 10 | C=CCOC(=O)C1=C(C)NC(=S)NC1c1ccccc1OCC (stereo not drawn) |
| > 10 | CCOC(=O)C1=C(CN2CC(C)CC(C)C2)NC(=O)NC1c1ccc(Cl)cc1 (stereo not drawn) |
| > 10 | CCOC(=O)C1=C(CN2CCN(C)CC2)NC(=O)NC1c1cc(C)ccc1C (stereo not drawn) |
| ≥ 20 | CCOC(=O)C1=C(C)N(CC)C(=O)NC1c1ccccc1Cl (stereo not drawn) |
| > 10 | CCOC(=O)C1=C(c2ccccc2)NC(=S)NC1c1ccc(OCC)cc1 (stereo not drawn) |
| ≥ 30 | CCCC1=C(C(=O)OCC)C(c2ccc(Br)cc2)NC(=O)N1 (stereo not drawn) |
| ≤ 10 | CCC(C)OC(=O)C1=C(C)NC(=O)NC1c1ccc(C(F)(F)F)cc1 (stereo not drawn) |
| > 10 | CCN(CC)C(=O)C1=C(C)NC(=S)NC1c1ccccc1OC (stereo not drawn) |
| > 10 | COC(C)OC(=O)C1=C(C)NC(=O)NC1c1cccc(Cl)c1Cl (stereo not drawn) |
| > 10 | CCOC(=O)C1=C(C)NC(=S)NC1c1ccc(N(C)C)cc1 (stereo not drawn) |
| ≤ 5 | CCN1C(=O)NC(c2ccc(Br)cc2)C(C(=O)OC(C)C)=C1C (stereo not drawn) |
| > 10 | CCN(CC)C(=O)C1=C(C)NC(=O)NC1c1c(F)cccc1Cl (stereo not drawn) |
| > 10 | CCOc1ccccc1C1NC(=O)NC(C)=C1C(=O)OC (stereo not drawn) |
| > 10 | CC1=C(C(=O)OC2CCCC2)C(c2ccccc2Br)NC(=O)N1 (stereo not drawn) |
| > 10 | CCN(CC)C(=O)C1=C(C)NC(=S)NC1c1ccccc1Cl (stereo not drawn) |
| > 10 | CCCC1=C(C(=O)OCC)C(c2cccc([N+](=O)[O-])c2)NC(=O)N1C (stereo not drawn) |
| > 10 | CCN1C(=O)NC(c2ccc(Cl)cc2Cl)C(C(=O)OC)=C1C (stereo not drawn) |

Same assay, conditions: Table 2; read-out: hTRPA1 Fluor IC50

| IC50 [µM] | Compound |
| --- | --- |
| > 10 | Cc1cc(C)c(NC(=O)Cn2cnc3c2c(=O)n(C)c(=O)n3C)c(C)c1 [Compound 375] |
| > 10 | Cc1ccc(NC(=O)Cn2cnc3c2c(=O)n(C)c(=O)n3C)cc1F [Compound 306] |
| ≤ 5 | Cc1nc(-c2ccc(CCNC(=O)Cn3cnc4c3c(=O)n(C)c(=O)n4C)cc2)cs1 [Compound 353] |
| > 10 | CC(CCc1ccccc1)NC(=O)Cn1cnc2c1c(=O)n(C)c(=O)n2C (stereo not drawn) [Compound 379] |
| > 10 | Cn1c(=O)c2c(ncn2CC(=O)NCc2cccc(Cl)c2)n(C)c1=O [Compound 286] |
| ≥ 20 | Cc1cccc(NC(=O)c2ccccc2NC(=O)Cn2cnc3c2c(=O)n(C)c(=O)n3C)c1 [Compound 355] |
| ≥ 20 | Cc1cc(NC(=O)Cn2cnc3c2c(=O)n(C)c(=O)n3C)n(-c2ccccc2)n1 [Compound 255] |
| > 10 | Cn1c(=O)c2c(ncn2CC(=O)Nc2ncc(Cl)cc2Cl)n(C)c1=O [Compound 341] |
| > 10 | COc1cc2c(cc1NC(=O)Cn1cnc3c1c(=O)n(C)c(=O)n3C)oc1ccccc12 [Compound 253] |
| ≤ 10 | CSc1cccc(NC(=O)Cn2cnc3c2c(=O)n(C)c(=O)n3C)c1 [Compound 282] |
| > 10 | Cn1c(=O)c2c(ncn2CC(=O)Nc2ccccc2C(=O)NC2CC2)n(C)c1=O [Compound 338] |
| > 10 | Cn1c(=O)c2c(ncn2CC(=O)Nc2cccnc2)n(C)c1=O [Compound 367] |
| > 10 | Cn1c(=O)c2c(ncn2CC(=O)NCc2ccc3c(c2)OCO3)n(C)c1=O [Compound 377] |
| > 10 | Cn1c(=O)c2c(ncn2CC(=O)NCc2ccccn2)n(C)c1=O [Compound 243] |
| > 10 | Cn1c(=O)c2c(ncn2CC(=O)Nc2cccc3ccccc23)n(C)c1=O [Compound 231] |
| ≥ 30 | Cc1ccc(NC(=O)Cn2cnc3c2c(=O)n(C)c(=O)n3C)nc1 [Compound 372] |
| ≤ 5 | Cn1c(=O)c2c(ncn2CC(=O)Nc2ccc(Cl)cc2F)n(C)c1=O [Compound 304] |
| > 10 | COC(=O)c1ccccc1NC(=O)Cn1cnc2c1c(=O)n(C)c(=O)n2C [Compound 365] |
| > 10 | Cn1c(=O)c2c(ncn2CC(=O)NCc2ccncc2)n(C)c1=O [Compound 242] |
| > 10 | Cn1c(=O)c2c(ncn2CC(=O)NCCc2ccccn2)n(C)c1=O [Compound 241] |
| > 10 | COc1ccccc1NC(=O)Cn1cnc2c1c(=O)n(C)c(=O)n2C [Compound 361] |
| > 10 | CCc1cccc(CC)c1NC(=O)Cn1cnc2c1c(=O)n(C)c(=O)n2C [Compound 383] |
| > 10 | COc1ccc(C)cc1NC(=O)Cn1cnc2c1c(=O)n(C)c(=O)n2C [Compound 373] |

Further lines, the compound ahead of its results:

| Compound | IC50 [µM] |
| --- | --- |
| Cn1c(=O)c2c(ncn2CC(=O)NCC(c2ccco2)N2CCCC2)n(C)c1=O (stereo not drawn) [Compound 308] | > 10 |
| Cn1c(=O)c2c(ncn2CC(=O)NCc2ccccc2CN2CCOCC2)n(C)c1=O [Compound 337] | > 10 |
| CN(CCCNC(=O)Cn1cnc2c1c(=O)n(C)c(=O)n2C)c1ccccc1 [Compound 322] | > 10 |
| CCOC(=O)c1ccc(NC(=O)Cn2cnc3c2c(=O)n(C)c(=O)n3C)cc1 [Compound 366] | ≤ 5 |
| Cn1c(=O)c2c(ncn2CC(=O)NCCOC(=O)c2ccc(Cl)cc2)n(C)c1=O [Compound 256] | > 10 |
